pIC50: −log10 of the molar value.
How the values were obtained:
[1] = biological target: T1, Amine oxidase [flavin-containing] A (Homo sapiens, UniProt P21397); experiment: Inhibition of human recombinant MAO-A using kynuramine as substrate preincubated with compound for 15 mins measured after 20 mins by fluorometric analysis
T1 sequence (P21397 whole entry): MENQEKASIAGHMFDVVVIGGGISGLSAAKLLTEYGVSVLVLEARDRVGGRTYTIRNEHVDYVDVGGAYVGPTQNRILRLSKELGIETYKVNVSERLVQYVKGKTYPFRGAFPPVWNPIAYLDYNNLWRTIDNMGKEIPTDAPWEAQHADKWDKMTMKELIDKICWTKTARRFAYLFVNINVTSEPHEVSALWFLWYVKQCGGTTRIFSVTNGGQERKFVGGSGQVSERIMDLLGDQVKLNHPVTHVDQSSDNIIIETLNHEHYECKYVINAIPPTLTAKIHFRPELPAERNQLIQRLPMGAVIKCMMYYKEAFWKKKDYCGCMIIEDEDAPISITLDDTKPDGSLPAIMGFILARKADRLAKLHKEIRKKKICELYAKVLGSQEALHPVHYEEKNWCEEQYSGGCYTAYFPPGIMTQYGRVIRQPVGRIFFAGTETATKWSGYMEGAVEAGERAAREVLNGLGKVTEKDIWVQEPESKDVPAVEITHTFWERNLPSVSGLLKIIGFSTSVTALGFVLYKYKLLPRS

Homo sapiens = species: Homo sapiens; experiment: Selectivity ratio of IC50 for human recombinant MAO-B to IC50 for human recombinant MAO-A
[2] = biological target: T2, Amine oxidase [flavin-containing] B (Homo sapiens, UniProt P27338); experiment: Inhibition of human recombinant MAO-B using kynuramine as substrate preincubated with compound for 15 mins measured after 20 mins by fluorometric analysis
T2 sequence (P27338 whole entry): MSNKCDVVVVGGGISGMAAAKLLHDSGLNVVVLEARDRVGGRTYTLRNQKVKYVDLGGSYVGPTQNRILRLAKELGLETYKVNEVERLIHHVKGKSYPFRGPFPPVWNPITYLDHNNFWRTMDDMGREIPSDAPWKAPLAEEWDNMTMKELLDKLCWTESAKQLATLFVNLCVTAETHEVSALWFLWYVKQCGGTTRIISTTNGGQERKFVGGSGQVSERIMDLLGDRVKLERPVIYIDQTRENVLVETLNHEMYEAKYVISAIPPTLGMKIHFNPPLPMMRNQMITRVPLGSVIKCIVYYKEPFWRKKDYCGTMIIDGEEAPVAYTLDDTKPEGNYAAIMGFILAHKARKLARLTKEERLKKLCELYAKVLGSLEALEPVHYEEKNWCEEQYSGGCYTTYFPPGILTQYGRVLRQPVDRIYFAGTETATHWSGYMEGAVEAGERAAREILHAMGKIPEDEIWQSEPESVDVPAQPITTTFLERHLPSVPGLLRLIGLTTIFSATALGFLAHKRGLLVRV

Structure (SMILES) | pIC50 [1] | Ratio IC50 (Homo sapiens) | pIC50 [2]
C/N=C1\NC(=O)/C(=C\c2c[nH]c3cc(Br)ccc23)N1C | 7.54 | 92 | 5.57
C/N=C1\N(C)C(=O)/C(=C\c2c[nH]c3ccccc23)N1C [METHYLAPLYSINOPSIN] | 7.01 | 92.3 | 5.04
C/N=C1/N/C(=C\c2c[nH]c3ccc(Br)cc23)C(=O)N1C | 5.49 | 5.16 | 4.78
C/N=C1\N(C)C(=O)/C(=C\c2c[nH]c3cc(Br)ccc23)N1C | 7.74 | 11.2 | 6.68
O=C1NC(=S)N/C1=C\c1c[nH]c2c(Br)cccc12 | 6.27 | 2.27 | 5.91
C/N=C1\NC(=O)/C(=C\c2c[nH]c3c(Br)cccc23)N1C | 5.72 | 6.75 | 4.89
C/N=C1\NC(=O)/C(=C\c2c[nH]c3ccccc23)N1C [ISOPLYSIN A] | 5.51 | 11 | 4.47
CN1C(=N)N/C(=C\c2c[nH]c3ccc(Br)cc23)C1=O | 6.49 | 13.2 | 5.37
C/N=C1\NC(=O)/C(=C\c2c[nH]c3cccc(Br)c23)N1C | 5.59 | 10.2 | 4.58
C/N=C1\NC(=O)/C(=C/c2c[nH]c3cccc(Br)c23)N1 | 5.74 | 3.9 | 5.15
N=C1NC(=O)/C(=C/c2c[nH]c3cccc(Br)c23)N1 | 5.61 | 11.5 | 4.55
CN1C(=N)N/C(=C\c2c[nH]c3c(Br)cccc23)C1=O | 5.92 | 11.9 | 4.85
O=C1NC(=S)N/C1=C\c1c[nH]c2ccc(Br)cc12 | 5.91 | 2.08 | 5.59
C/N=C1\NC(=O)/C(=C/c2c[nH]c3ccc(Br)cc23)N1 | 5.92 | 1.66 | 5.70
CN1C(=N)NC(=O)/C1=C\c1c[nH]c2c(Br)cccc12 | 5.21 | 5.62 | 4.46
CN1C(=N)N(C)/C(=C/c2c[nH]c3ccccc23)C1=O [APLYSINOPSIN] | 7.46 | 290 | 5.00
C/N=C1\NC(=O)/C(=C/c2c[nH]c3cc(Br)ccc23)N1 | 5.35 | 4.66 | 4.68
C/N=C1\NC(=O)/C(=C\c2c[nH]c3ccc(Br)cc23)N1C | 6.58 | 44.2 | 4.93
N=C1NC(=O)/C(=C/c2c[nH]c3ccc(Br)cc23)N1 | 5.23 | 1.93 | 4.95
C/N=C1\NC(=O)/C(=C/c2c[nH]c3c(Br)cccc23)N1 | 5.41 | 6.66 | 4.59
C/N=C1\N(C)C(=O)/C(=C\c2c[nH]c3ccc(Br)cc23)N1C | 7.07 | 4.38 | 6.43
O=C1NC(=S)N/C1=C\c1c[nH]c2cc(Br)ccc12 | 5.81 | 1.67 | 5.59
CN1C(=N)N(C)/C(=C/c2c[nH]c3cccc(Br)c23)C1=O | 5.68 | 24.8 | 4.29
CN1C(=N)NC(=O)/C1=C\c1c[nH]c2cc(Br)ccc12 | 5.22 | 5.87 | 4.45
C/N=C1\N(C)C(=O)/C(=C\c2c[nH]c3c(Br)cccc23)N1C | 6.82 | 18.4 | 5.55
N=C1NC(=O)/C(=C/c2c[nH]c3ccccc23)N1 | 4.89 | 2.59 | 4.48
N=C1NC(=O)/C(=C/c2c[nH]c3c(Br)cccc23)N1 | 5.26 | 5.04 | 4.56
O=C1NC(=S)N/C1=C\c1c[nH]c2cccc(Br)c12 | 6.57 | 1.68 | 6.35
CSC1=N/C(=C\c2c[nH]c3ccccc23)C(=O)N1 | 5.56 | 21.3 | 4.23

More lines, in order of rising pIC50 [1], values ahead:

pIC50 [1] | Ratio IC50 (Homo sapiens) | pIC50 [2] | Structure (SMILES)
4.58 | – | < 4.00 | CN1C(=N)NC(=O)/C1=C\c1c[nH]c2cccc(Br)c12
4.84 | 1.69 | 4.61 | O=C1NC(=S)N/C1=C\c1c[nH]c2ccccc12
4.88 | 0.45 | 5.22 | C/N=C1\NC(=O)/C(=C/c2c[nH]c3ccccc23)N1
4.91 | 3.55 | 4.36 | CN1C(=N)NC(=O)/C1=C\c1c[nH]c2ccccc12
5.10 | 3.06 | 4.61 | CN1C(=N)NC(=O)/C1=C\c1c[nH]c2ccc(Br)cc12
5.15 | 1.22 | 5.06 | CSC1=NC(=O)/C(=C/c2c[nH]c3ccc(Br)cc23)N1
5.24 | 5.24 | 4.52 | C/N=C1/N/C(=C\c2c[nH]c3ccccc23)C(=O)N1C
5.26 | 4.9 | 4.57 | C/N=C1/N/C(=C\c2c[nH]c3cccc(Br)c23)C(=O)N1C
5.43 | 6.88 | 4.60 | N=C1NC(=O)/C(=C/c2c[nH]c3cc(Br)ccc23)N1
5.71 | 17.5 | 4.46 | CN1C(=N)N/C(=C\c2c[nH]c3ccccc23)C1=O
5.82 | 24.4 | 4.43 | CN1C(=N)N/C(=C\c2c[nH]c3cccc(Br)c23)C1=O
5.95 | 22.9 | 4.59 | C/N=C1/N/C(=C\c2c[nH]c3cc(Br)ccc23)C(=O)N1C
5.97 | 3.94 | 5.37 | C/N=C1/N/C(=C\c2c[nH]c3c(Br)cccc23)C(=O)N1C
6.17 | 5.51 | 5.43 | CSC1=NC(=O)/C(=C/c2c[nH]c3cccc(Br)c23)N1
6.20 | 3.88 | 5.61 | CSC1=NC(=O)/C(=C/c2c[nH]c3c(Br)cccc23)N1
6.21 | 8.37 | 5.28 | C/N=C1\N(C)C(=O)/C(=C\c2c[nH]c3cccc(Br)c23)N1C
6.27 | 2.65 | 5.85 | CSC1=NC(=O)/C(=C/c2c[nH]c3cc(Br)ccc23)N1
6.63 | 11.4 | 5.57 | CN1C(=N)N(C)/C(=C/c2c[nH]c3ccc(Br)cc23)C1=O
6.78 | 23 | 5.42 | CN1C(=N)N/C(=C\c2c[nH]c3cc(Br)ccc23)C1=O
7.28 | 60.5 | 5.51 | CN1C(=N)N(C)/C(=C/c2c[nH]c3c(Br)cccc23)C1=O
8.25 | – | 6.35 | CN1C(=N)N(C)/C(=C/c2c[nH]c3cc(Br)ccc23)C1=O
